How the values were obtained:
TLR8 [1] = target: T1, TLR8 (Homo sapiens, UniProt Q9NR97); test: Inhibition of R848-induced signaling in HEK-Blue hTLR8 cell line (Quanti-Blue); type: cell-based
T1 construct: host or cells: HEK-Blue hTLR8 (HEK293-derived SEAP reporter cells)
T1 sequence (Q9NR97 27-1041): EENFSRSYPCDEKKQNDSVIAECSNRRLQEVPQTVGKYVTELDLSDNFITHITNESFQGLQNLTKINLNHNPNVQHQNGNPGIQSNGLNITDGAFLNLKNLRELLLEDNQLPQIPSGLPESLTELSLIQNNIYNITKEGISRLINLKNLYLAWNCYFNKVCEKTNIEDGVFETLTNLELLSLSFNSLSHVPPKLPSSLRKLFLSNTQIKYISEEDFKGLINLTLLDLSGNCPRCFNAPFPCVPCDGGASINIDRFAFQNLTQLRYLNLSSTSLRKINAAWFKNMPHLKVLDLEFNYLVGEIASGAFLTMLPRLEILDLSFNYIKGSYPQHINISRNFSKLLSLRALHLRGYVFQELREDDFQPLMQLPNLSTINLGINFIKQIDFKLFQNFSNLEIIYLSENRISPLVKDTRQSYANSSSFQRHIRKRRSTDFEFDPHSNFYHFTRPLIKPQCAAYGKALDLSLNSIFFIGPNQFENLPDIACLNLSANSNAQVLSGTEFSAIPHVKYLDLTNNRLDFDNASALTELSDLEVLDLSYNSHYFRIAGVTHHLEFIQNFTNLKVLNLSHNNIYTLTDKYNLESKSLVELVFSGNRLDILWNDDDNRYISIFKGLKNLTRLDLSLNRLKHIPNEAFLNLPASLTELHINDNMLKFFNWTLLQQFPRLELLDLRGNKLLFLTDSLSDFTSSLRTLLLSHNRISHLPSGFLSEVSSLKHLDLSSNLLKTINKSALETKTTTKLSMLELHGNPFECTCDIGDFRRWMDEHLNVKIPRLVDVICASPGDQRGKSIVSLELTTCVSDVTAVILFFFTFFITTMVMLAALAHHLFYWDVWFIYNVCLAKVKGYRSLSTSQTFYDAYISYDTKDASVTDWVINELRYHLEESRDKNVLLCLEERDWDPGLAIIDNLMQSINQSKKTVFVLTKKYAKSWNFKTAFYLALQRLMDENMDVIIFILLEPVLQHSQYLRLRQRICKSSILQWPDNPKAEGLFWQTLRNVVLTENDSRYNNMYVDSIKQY
How it was run: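 HEK-Blue hTLR8 cells, 45,000 per well, cultured 24 h then switched to serum-free DMEM; after a further 24 h, supernatant SEAP read with Quanti-Blue at 620 nm. Inhibition computed relative to R848 and untreated-cell OD620; IC50 from curve fit.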

HEK-Blue hTLR8 cell line = test: Toxicity test of compounds (CCK-8 cell viability); type: cell-based, human; parameters: key to WST1 (normalized toxicity effect): viability relative to control well (background-subtracted OD), 1 = control
Description: In the 96-well plate used for the above-mentioned activity test of compounds (remaining 50 μL of culture medium containing cells), 5 μL of CellCountingKit-8 (CCK-8) Supermix was added to each well. Note that the introduction of air bubbles into the wells should be avoided since the air bubbles would interfere with the detection of OD value.
The culture plate was incubated in an incubator for 1 to 4 hours,
The edge of the 96-well plate could be tapped gently before reading the plate, and then the absorbance at 450 nm was measured by using the multi-mode plate reader.
Cell viability (%) was determined using the following formula: cell viability (%)=([Compound well ([…])−Background well (OD450)]/[Control well ([…])−Background well (OD450)])×100%. Among these, the background well was only added with the medium and CCK-8 reagent, the control well was only added with the medium, cells, R848 and CCK-8, and the compound wells were added with the medium, cells, R848, compounds in different concentrations, and CCK-8.

TLR8 [2] = target: T1, TLR8; test: ORN06-induced signaling in HEK-Blue hTLR8 cell line; type: cell-based
Description: HEK Blue hTLR8 cells or HEK Blue hTLR7 cells were cultured in DMEM medium supplemented with 10% fetal bovine serum, penicillin (100 U/mL) and streptomycin ([…]). Thereafter, cells were seeded in 96-well plate (45,000 cells per well), and were cultured for 24 hours in a humidified incubator (37° C., 5% CO2).
After 24 hours, the supernatant and suspending cells were aspirated and replaced with fresh serum-free DMEM. Cells were treated with 1 μg/mL of R848 (agonist of TLR7/8) or 5 μg/mL of ssRNA40/LyoVec or 5 μg/mL of ORN06/LyoVec (InvivoGen) and compounds with specified concentrations, and were placed in a humidified incubator (37° C., 5% CO2) for co-culture.
After 24 hours, 50 μL of the medium was aspirated from each well and then added to a new 96-well plate, followed by the addition of 50 μL of Quanti-Blue in each well and the incubation at 37° C. in darkness. Changes in color would occur in the […] within 60 minutes, and the absorbance was measured at 620 nm by using the multi-mode plate reader Vrioskan Flash. Inhibition rate (%)=[R848 (OD620)−Compound (OD620)]/[R848 (OD620)−Control (OD620)]×100%. Among these, the control group was only added with the same amount of cells. Finally, the software Prism 6.0 was utilized to plot a graph and calculate IC50 values. […]

TLR8 [3] = target: T1, TLR8; test: Specificity test in HEK-Blue TLR cell lines: TLR8; type: cell-based
Description: (§1) The selectivity of compounds for receptors in TLR family was tested in HEK-Blue cells overexpressing various TLRX (x=1 to 9) respectively. The steps of this test method were the same as those mentioned above in “Activity Test of Compounds”, except that the ligands corresponding to different TLRs were used to activate the downstream signaling in the corresponding cells. Among these, ploy (I:C) (20 μg/mL), LPS (40 ng/mL), Pam3CSK4 (100 ng/mL), Pam2CSK4 (100 ng/mL), flagellin (200 ng/mL), R848 (1 μg/mL) and ODN2006 (0.5 μM) were used to selectively activate HEK-Blue hTLR3-, hTLR4-, hTLR1/2-, hTLR2/6-, hTLR5-, hTLR7- and hTLR9-overexpressing cells, respectively.

[4] = tested on: hTLR1/2, TLR2/6, TLR3, TLR4, TLR5, TLR7, TLR9; test: Specificity test in HEK-Blue TLR cell lines: other TLRs; type: cell-based, human; details: at a concentration of 100 μM (FIG. 11)
Description: as §1

[5] = HEK-Blue hTLR8 cell line (FIG. 1, FIG. 10)
[6] = HEK-Blue hTLR8 cell line, at a concentration of 100 μM (FIG. 12)

Row | SMILES | inhibitory effect on R848-induced signaling (TLR8 [1]; [5]) | IC50 (TLR8 [1]; R848-induced signaling, HEK-Blue hTLR8 cell line, value ± standard deviation, at least triplicate) [nM] | toxicity in HEK-Blue hTLR8 cell line (HEK-Blue hTLR8 cell line; even at a concentration of 100 μM (FIG. 2)) | inhibitory effect on ORN06-induced signaling (TLR8 [2]; HEK-Blue hTLR8 cell line (FIG. 1)) | specific inhibitory effect on HEK-Blue hTLR8 cell line (TLR8 [3]; at a concentration of 20 μM (FIG. 3)) | inhibitory effect on R848-induced signaling (TLR8 [1]; [6]) | Remaining R848-induced TLR8 signaling (normalized activity; ligand+DMSO = 1, untreated = 0) (TLR8 [1]; HEK-Blue hTLR8 cell line, normalized, ligand+DMSO = 100% activity, untreated = 0%) | influence on cell viability (HEK-Blue hTLR8 cell line; HEK-Blue hTLR8 cells, under the test conditions (FIG. 10)) | WST1 (normalized toxicity effect) (HEK-Blue hTLR8 cell line; normalized cell viability, HEK-Blue cell lines) | synergistic activating effect on ORN06-induced signaling (TLR8 [2]; [6]) | specific inhibitory effect on TLR8 signaling pathway (TLR8 [3]; at a concentration of 100 μM (FIG. 11)) | influence on other TLR signaling pathways [4]
1 | CSc1nnc(CCCO)n1-c1cc(C)c(C)c(C)c1 [Compound 24, 3-(5-(methylthio)-4-(3,4,5-trimethylphenyl)-4H-1,2,4-triazole-3-yl)propan-1-ol] | excellent inhibitory effect | 30 ± 2 | did not cause significant toxicity | excellent inhibitory effect | specific inhibitory effect |  |  |  |  |  |  | 
2 | CCOCc1nc(I)c(-c2ccccc2)n1CC(C)(C)O [Compound 53, 1-[2-(ethoxymethyl)-4-iodo-5-phenyl-1H-imidazole-1-yl]-2-methylpropan-2-ol] | significant inhibitory effect |  |  |  |  | significant inhibitory effect | 0.1 ± 0.1 | no influence on cell viability | 0.9 ± 0.2 | synergistic activating effect | specific inhibitory effect | no influence

From US20230002327A1, “SMALL-MOLECULE REGULATOR OF TLR8” (TSINGHUA UNIVERSITY, priority 2019, published 2023)
